The values that follow come from patent publication US4925865A, “Antimycotic agents” (Bayer Aktiengesellschaft, priority 1987, dated 1990).

In brackets after ≈: the same amount, converted by molar mass.

One test deals with Candida albicans. Nature of the test: Antimycotic in vitro activity, serial dilution test, Candida albicans. As to conditions: meat extract/dextrose broth, 28-37° C., 24 to 96 hours. In kind it is cell-based. As to the method:
(§1) The in vitro tests were carried out in the serial dilution test using inocula of microorganisms of approximately 5×10^3 to 10^4 microorganisms/ml of substrate. The nutrient medium used was (a) for dermatophytes and Blastomycetes: Sabouraud's test medium (b) for yeasts: meat extract/dextrose broth. The incubation temperature was 28° C. to 37° C., and the incubation period was 24 to 96 hours with yeasts and 96 hours with dermatophytes and Blastomycetes.

The test system of a further test is Aspergillus fumigatus. Nature of the test: Antimycotic in vitro activity, serial dilution test, Aspergillus fumigatus. In kind it is cell-based. The following applies: 28-37° C. The procedure: as §1
Another test deals with mycoses. The following applies: compare EP-OS No.0,180,850; cited from earlier work.
The next test concerns Trichophyton mentagr. Nature of the test: Antimycotic in vitro activity, serial dilution test, Trichophyton mentagr. In kind it is cell-based, Trichophyton mentagrophytes. As to conditions: Sabouraud's test medium, 28-37° C., 96 hours. The procedure: as §1
The test system of a further test is Torulopsis glabrata. The test is described as follows: Antimycotic in vitro activity, serial dilution test, Torulopsis glabrata. The test is classed as cell-based. As to conditions: Nakaseomyces glabratus; 28-37° C., 24 to 96 hours. The procedure:
as §1

For the next test, the system named is Microsporum canis. Nature of the test: Antimycotic in vitro activity, serial dilution test, Microsporum canis. The test is classed as cell-based. The following applies: Sabouraud's test medium, 28-37° C., 96 hours. As to the method:
as §1

The test system of a further test is Candida. The test is described as follows: Antimycotic in vivo activity (oral) in mouse candidiasis. Details: species or system mouse (SPF-CF1 type). The following applies: for action compared with compounds (A) and (B): oral 10-100 mg/kg; for Action (survival on the 6th day post infection): oral 10-100 mg/kg one hour before and seven hours after i.v. inoculation. As to the method: Mice of the SPF-CF1 type were intravenously inoculated with 1-2×10^6 logarithmically growing Candida cells, suspended in physiological saline solution. One hour before and seven hours after the inoculation, the animals are in each case orally treated with 10-100 mg/kg of body weight of the preparation. Untreated animals died 3 to 6 days post infection. The survival rate on the 6th day post infection was about 5% in untreated control animals.

The subject of test [1] is dermatophytes, Blastomycetes and yeasts. Nature of the test: Antimycotic in vitro activity, serial dilution test, overall comparison. In kind it is cell-based. The procedure: as §1

`OC(Cn1cncn1)(c1ccc(Cl)cc1)C1(F)CC1` (stereo not shown) [(A), 1-(4-chlorophenyl)-1-(1-fluoro-cycloprop-1-yl)-2-(1,2,4-triazol-1-yl)-ethan-1-ol, reference compound]: the MIC in the test with Candida albicans, in the test with Aspergillus fumigatus and with Trichophyton mentagr. was above 64 µg/mL each time. For the same compound, the antimycotic properties entry with mycoses is “exhibit antimycotic properties”.

As for `OC(Cn1cncn1)(c1ccc(Cl)cc1)C1(Oc2ccc(Cl)cc2Cl)CC1` (stereo not shown) [(B), 1-(4-chlorophenyl)-1-[1-(2,4-dichlorophenoxy)-cycloprop-1-yl]-2-(1,2,4-triazol-1-yl)-ethan-1-ol, reference compound], the MIC is 64 µg/mL (≈ 151 µM) against Torulopsis glabrata, 16 µg/mL (≈ 37.7 µM) against Candida albicans, above 64 µg/mL against Aspergillus fumigatus and 64 µg/mL (≈ 151 µM) against Trichophyton mentagr.. Moreover, the antimycotic properties entry in the test on mycoses is “exhibit antimycotic properties”.

Consider `OC(CCc1ccc(Cl)cc1)(Cn1cncn1)C1(Cl)CC1` (stereo not shown) [Compound I-1, 2-(1-chlorocyclopropyl)-4-(4-chlorophenyl)-1-(1,2,4-triazol-1-yl)-butan-2-ol], for which the MIC was below 1 µg/mL with Torulopsis glabrata; below 1 µg/mL in the test on Microsporum canis; 2 µg/mL (≈ 6.13 µM) in the test with Candida albicans; below 1 µg/mL with Aspergillus fumigatus; below 1 µg/mL against Trichophyton mentagr.. Further, the “action compared with compounds (A) and (B)” value in the test on Candida is “better action than the compounds (A) and (B)”. The “Action (survival on the 6th day post infection)” value in the test with Candida is on record as “+++ (action = 60% survival on the 6th day post infection)”. For the same compound, the “antimycotic activity compared with compounds (A) and (B)” value in test [1] is “better antimycotic activity than the compounds (A) and (B)”.

`CSC1(C(O)(CCc2ccc(Cl)cc2)Cn2cncn2)CC1` (stereo not shown) [Compound I-6]: the MIC is 16 µg/mL (≈ 47.4 µM) against Torulopsis glabrata; 2 µg/mL (≈ 5.92 µM) against Microsporum canis; 4 µg/mL (≈ 11.8 µM) against Candida albicans; below 1 µg/mL with Aspergillus fumigatus; below 1 µg/mL against Trichophyton mentagr.. For the same compound, the “action compared with compounds (A) and (B)” value in the test on Candida was “better action than the compounds (A) and (B)”. Also, the “Action (survival on the 6th day post infection)” value with Candida is on record as “+++ (action = 60% survival on the 6th day post infection)”. Besides, the “antimycotic activity compared with compounds (A) and (B)” value in test [1] was “better antimycotic activity than the compounds (A) and (B)”.

With `CSC1(C(O)(C=Cc2ccc(Cl)cc2)Cn2cncn2)CC1` (stereo not shown) [Compound I-13], the MIC was 2 µg/mL (≈ 5.95 µM) against Torulopsis glabrata; 4 µg/mL (≈ 11.9 µM) in the test on Microsporum canis; 2 µg/mL (≈ 5.95 µM) with Candida albicans; below 1 µg/mL against Aspergillus fumigatus; below 1 µg/mL against Trichophyton mentagr.. For the same compound, the “action compared with compounds (A) and (B)” value in the test on Candida is “better action than the compounds (A) and (B)”. The “Action (survival on the 6th day post infection)” value with Candida is listed as “+++++ (very good action = 90% survival on the 6th day post infection)”. In addition, the “antimycotic activity compared with compounds (A) and (B)” value in test [1] was “better antimycotic activity than the compounds (A) and (B)”.

In the case of `OC(C=Cc1ccc(Cl)cc1Cl)(Cn1cncn1)C1(Cl)CC1` (stereo not shown) [Compound I-29], the MIC with Torulopsis glabrata was 8 µg/mL (≈ 22.3 µM); in the test on Microsporum canis it was below 1 µg/mL; against Candida albicans, 16 µg/mL (≈ 44.6 µM); in the test on Aspergillus fumigatus it was below 1 µg/mL; in the test on Trichophyton mentagr., below 1 µg/mL. In addition, the “action compared with compounds (A) and (B)” value in the test with Candida was “better action than the compounds (A) and (B)”. In addition, the “Action (survival on the 6th day post infection)” value in the test with Candida was “+++ (action = 60% survival on the 6th day post infection)”. The “antimycotic activity compared with compounds (A) and (B)” value in test [1] is “better antimycotic activity than the compounds (A) and (B)”.

On to `OC(C=Cc1ccc(Br)cc1)(Cn1cncn1)C1(Cl)CC1` (stereo not shown) [Compound I-30], for which the MIC in the test on Torulopsis glabrata is 4 µg/mL (≈ 10.9 µM); against Microsporum canis it was below 1 µg/mL; with Candida albicans, 2 µg/mL (≈ 5.43 µM); in the test on Aspergillus fumigatus, below 1 µg/mL; in the test on Trichophyton mentagr. it was below 1 µg/mL. In addition, in the test on Candida, the “action compared with compounds (A) and (B)” value is “better action than the compounds (A) and (B)”. Also, in the test on Candida, the “Action (survival on the 6th day post infection)” value is “+++++ (very good action = 90% survival on the 6th day post infection)”. Also, the “antimycotic activity compared with compounds (A) and (B)” value in test [1] was “better antimycotic activity than the compounds (A) and (B)”.

As for `OC(C=Cc1ccc(OC(F)(F)F)cc1)(Cn1cncn1)C1(Cl)CC1` (stereo not shown) [Compound I-33], the MIC in the test with Torulopsis glabrata is below 1 µg/mL; against Microsporum canis it was below 1 µg/mL; against Candida albicans it was 8 µg/mL (≈ 21.4 µM); in the test on Aspergillus fumigatus, below 1 µg/mL; with Trichophyton mentagr. it was below 1 µg/mL. Also, the “action compared with compounds (A) and (B)” value in the test on Candida is “better action than the compounds (A) and (B)”. Also, in the test with Candida, the “Action (survival on the 6th day post infection)” value is given as “+++++ (very good action = 90% survival on the 6th day post infection)”. In test [1], the “antimycotic activity compared with compounds (A) and (B)” value is “better antimycotic activity than the compounds (A) and (B)”.

Consider `OC(C=Cc1ccc(F)c(Br)c1)(Cn1cncn1)C1(Cl)CC1` (stereo not shown) [Compound I-34], for which the MIC against Torulopsis glabrata is 4 µg/mL (≈ 10.3 µM); in the test on Candida albicans, 4 µg/mL (≈ 10.3 µM); with Aspergillus fumigatus, below 1 µg/mL; against Trichophyton mentagr., 2 µg/mL (≈ 5.17 µM). In the test with Candida, the “action compared with compounds (A) and (B)” value was “better action than the compounds (A) and (B)”. Also, in the test with Candida, the “Action (survival on the 6th day post infection)” value is on record as “+++ (action = 60% survival on the 6th day post infection)”. Further, the “antimycotic activity compared with compounds (A) and (B)” value in test [1] was “better antimycotic activity than the compounds (A) and (B)”.

Usually MIC stands for the lowest concentration found to suppress growth. Lower therefore signals greater potency.
